From patent publication EP1140919B1, “1,4-DISUBSTITUTED CYCLOHEXANE DERIVATIVES FOR THE TREATMENT OF DEPRESSION” (Wyeth, priority 1999, dated 2000)
pKi: −log10 of the molar value.

Tests used:
[1] = biological target: T1, serotonin transporter (Rattus norvegicus, UniProt P31652); assay: Serotonin transporter binding assay with 3H-paroxetine on frontal cortical membranes; design: species or system male Sprague-Dawley rats
T1 construct: frontal cortical membranes prepared from male Sprague-Dawley rats; from tissue; host or cells: frontal cortex of male Sprague-Dawley rats (membranes)
Protocol: A protocol similar to that used by Cheetham et al., Neuropharmacol., 32:737 (1993) was used to determine the affinity of compounds for the serotonin transporter. Briefly, frontal cortical membranes prepared from male Sprague-Dawley rats were incubated with ^3H-paroxetine (0.1 nM) for 60 min at 25°C. All tubes also contained either vehicle, test compound (one to eight concentrations), or a saturating concentration of fluoxetine (10 µM) to define […]. All reactions were terminated by the addition of ice cold Tris buffer followed by rapid filtration using a Tom Tech filtration device to separate bound from free ^3H-paroxetine. Bound radioactivity was quantitated using a Wallac 1205 Beta Plate® counter. Nonlinear regression analysis was used to determine IC50 values which were converted to Ki values using the method set forth in Cheng and Prusoff, Biochem. Pharmacol., 22:3099 (1973) ([…].

[2] = biological target: T2, human 5-HT1A receptor (Homo sapiens, UniProt P08908); assay: 5-HT1A receptor binding assay with [3H]8-OH-DPAT on CHO cell membranes; conditions: @ 1000 nM, 5-HT1A.CHO cell membranes
T2 construct: expressed in transfected cells
T2 sequence (P08908 1-422): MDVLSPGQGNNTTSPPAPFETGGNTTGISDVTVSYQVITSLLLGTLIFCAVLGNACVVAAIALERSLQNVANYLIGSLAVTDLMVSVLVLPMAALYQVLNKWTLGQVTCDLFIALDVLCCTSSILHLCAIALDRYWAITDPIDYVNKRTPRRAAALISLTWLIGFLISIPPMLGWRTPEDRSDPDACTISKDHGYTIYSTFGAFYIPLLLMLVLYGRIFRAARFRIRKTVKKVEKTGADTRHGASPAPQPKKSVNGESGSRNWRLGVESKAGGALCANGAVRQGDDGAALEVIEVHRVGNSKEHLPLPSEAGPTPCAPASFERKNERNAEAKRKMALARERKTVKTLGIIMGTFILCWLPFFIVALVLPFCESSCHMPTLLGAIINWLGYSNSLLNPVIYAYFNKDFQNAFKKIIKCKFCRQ
Protocol: The PCR cloning of the human 5-HT1A receptor subtype from a human genomic library has been described previously by Chanda et al., Mol. Pharmacol., 43:516 (1993). A stable Chinese hamster ovary cell line expressing the human 5-HT1A receptor subtype (5-HT1A.CHO cells) was employed throughout this study. Cells were maintained in DMEM supplemented with 10% fetal calf serum, non-essential amino acids and penicillin/ streptomycin.
Cells were grown to 95-100% confluency as a monolayer before membranes were harvested for binding studies. Cells were gently scraped from the culture plates, transferred to centrifuge tubes, and washed twice by centrifugation (2000 rpm for 10 min., 4°C) in buffer (50 mM Tris; pH 7.5). The resulting pellets were aliquoted and maintained at -80•C. On the day of assay, the cells were thawed on ice, and resuspended in buffer. Studies were conducted using [^3H]8-OH-DPAT as the radioligand. The binding assay was performed in 96 well microtiter plates in a final total volume of 250 µL of buffer. Comparison experiments werc performed by using 7 concentrations of unlabelled drug and a final ligand concentration of 1.5 nM. Nonspecific binding was determined in the presence of 10 µM 5HT. Saturation analysis was conducted by using [^3H]8-OH-DPAT at concentrations ranging from 0.3-30 nM. […]

T1 sequence (P31652 whole entry): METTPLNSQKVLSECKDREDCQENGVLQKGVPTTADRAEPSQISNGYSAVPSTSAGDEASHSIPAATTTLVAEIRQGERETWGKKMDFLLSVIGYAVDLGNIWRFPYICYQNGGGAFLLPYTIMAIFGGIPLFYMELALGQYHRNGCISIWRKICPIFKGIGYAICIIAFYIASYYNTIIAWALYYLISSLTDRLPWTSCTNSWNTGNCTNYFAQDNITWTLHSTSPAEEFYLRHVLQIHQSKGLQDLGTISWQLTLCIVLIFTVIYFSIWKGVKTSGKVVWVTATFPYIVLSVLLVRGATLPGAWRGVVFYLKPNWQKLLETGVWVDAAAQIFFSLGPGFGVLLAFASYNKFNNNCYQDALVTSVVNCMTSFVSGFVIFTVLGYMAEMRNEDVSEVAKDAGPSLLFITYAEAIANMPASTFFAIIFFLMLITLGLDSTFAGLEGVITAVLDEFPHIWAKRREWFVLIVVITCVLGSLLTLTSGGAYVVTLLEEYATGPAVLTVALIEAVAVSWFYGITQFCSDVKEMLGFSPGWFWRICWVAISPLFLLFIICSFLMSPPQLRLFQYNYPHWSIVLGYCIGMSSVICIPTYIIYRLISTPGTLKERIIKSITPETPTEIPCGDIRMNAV

| Structure (SMILES) | pKi [1] | 5-HT1A (Ki, nM) [2] [% @ 1000 nM] | ST (Ki, nM,) ([1]; @ 100 nM, 3H-paroxetine, rat frontal cortical membranes) [% @ 100 nM] |
| --- | --- | --- | --- |
| COc1ccsc1C1=CCN([C@H]2CC[C@@H](c3c[nH]c4ccc(F)cc43)CC2)CC1 [Example 1, 5-Fluoro-3-{(1,4-cis)-4-[4-(3-methoxy-thiophen-2-yl)-3,6-dihydro-2H-pyridin-1-yl]-cyclohexyl}-1H-indole] | 8.60 | 48 | – |
| COc1ccsc1C1=CCN([C@H]2CC[C@H](c3c[nH]c4ccc(F)cc43)CC2)CC1 [Example 2, 5-Fluoro-3-{(1,4-trans)-4-[4-(3-methoxy-thiophen-2-yl)-3,6-dihydro-2H-pyridin-1-yl]-cyclohexyl}-1H-indole] | – | – | 18 |
